Legend:
[1] = system: aryl hydrocarbon receptor (AhR); design: method as in PMID 33614386, PMID 18969555, PMID 18969548; details: CALUX; relative to 2,3,7,8-TCDD; cited from earlier work
[2] = target: T1, aryl hydrocarbon receptor (AhR) (Rattus norvegicus, UniProt P41738); assay: CALUX luciferase reporter bioassay, H4L1.1c4 rat hepatoma cells (4 DREs); format: cell-based; details: H4L1.1c4 rat (4 DREs)
T1 construct: endogenous in cells; host or cells: H4L7.5c2, H4L1.1c4 and DR-CALUX (H4L1.1c10, H4IIe-based) recombinant rat hepatoma cells
T1 sequence (P41738 10-853): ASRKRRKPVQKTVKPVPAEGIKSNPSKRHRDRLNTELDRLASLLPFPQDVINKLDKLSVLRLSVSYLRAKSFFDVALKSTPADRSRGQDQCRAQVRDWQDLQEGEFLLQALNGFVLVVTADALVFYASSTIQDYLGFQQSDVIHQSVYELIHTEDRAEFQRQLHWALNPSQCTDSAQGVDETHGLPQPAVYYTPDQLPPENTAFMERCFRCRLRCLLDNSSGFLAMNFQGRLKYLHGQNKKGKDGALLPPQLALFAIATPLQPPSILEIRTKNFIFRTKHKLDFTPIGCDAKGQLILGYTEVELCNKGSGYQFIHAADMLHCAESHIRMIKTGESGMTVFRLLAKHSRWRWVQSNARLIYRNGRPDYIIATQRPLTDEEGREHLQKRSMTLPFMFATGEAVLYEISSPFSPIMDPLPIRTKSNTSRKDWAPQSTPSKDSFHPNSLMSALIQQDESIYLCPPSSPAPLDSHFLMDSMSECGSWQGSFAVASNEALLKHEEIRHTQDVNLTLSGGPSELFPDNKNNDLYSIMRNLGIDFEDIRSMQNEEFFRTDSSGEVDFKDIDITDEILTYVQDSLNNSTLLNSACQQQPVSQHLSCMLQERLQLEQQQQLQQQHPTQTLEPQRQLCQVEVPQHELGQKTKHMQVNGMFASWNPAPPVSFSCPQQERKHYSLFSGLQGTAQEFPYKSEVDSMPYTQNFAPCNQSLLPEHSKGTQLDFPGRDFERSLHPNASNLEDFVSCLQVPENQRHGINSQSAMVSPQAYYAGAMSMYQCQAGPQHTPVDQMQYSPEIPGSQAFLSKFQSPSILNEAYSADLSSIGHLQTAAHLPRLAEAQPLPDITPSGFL
Source text: (§1) A “3rd generation” H4L7.5c2 recombinant rat hepatoma CALUX cell line that contains a stably transfected AhR-responsive firefly luciferase reporter gene under control of 20 dioxin responsive elements (DREs) was utilized in this study. […] H4L7.5c2 rat and other CALUX cell lines, such as H4L1.1c4 rat and […] mouse hepatoma cells (each with 4 DREs), or “3rd generation” H1L7.5c3 mouse hepatoma cells (20 DREs), are freely available for non-profit research purposes and can be obtained from Prof. Denison. These cells are also available for commercial and government screening purposes through a licensing agreement with the Hiyoshi Corporation, Omihachiman, Japan (www.calux-jp.com/english/).
(§2) We compared both key indicators of assay performance, calibrator bias and imprecision, and the resulting working range for H4L7.5c2 rat hepatoma cells (this study) with those obtained using various other cell lines (4 DREs: H4L1.1c4 rat, DR-CALUX rat, H1L6.1c2 mouse hepatoma cells; 20 DREs: H1L7.5c3 mouse hepatoma cells) previously evaluated (Table 2). Commercially available DR-CALUX cells, a recombinant rat hepatoma (H4IIe)-based cell line (H4L1.1c10), were obtained from BioDetection Systems (The Netherlands). When using CALUX cell lines that contain 4 DREs, the lower limit of working range (LLOW), or the concentration above which results may be reported, is typically close to 1 pmol/L if both RLU-based and concentration-based criteria for bias and imprecision are fulfilled (assay working range B in Table 2). […] When utilizing H1L7.5c3 mouse hepatoma cells, which also contain 20 DREs, the LLOW equals 0.3 pmol/L, as well. However, the range in which assay concentrations match all criteria for bias and imprecision is smaller with an upper limit of working range (ULOW) of just 10 pmol/L. It follows that the “3rd generation” H4L7.5c2 rat hepatoma cells provide the most suitable working range of the assay for low sample concentrations, regardless of whether only the current EU RLU-based imprecision requirements are met or whether bias-related and concentration-based criteria are additionally observed (Table 2).
(§3) While absolute induction is driven by the efficiency of gene expression, fold induction is the ratio between the cell response (RLU) induced by a calibration standard, or by AhR-active dioxin-like compounds present in a sample extract, and the unspecific assay background response (RLU). […] Furthermore, the Chi-square-to-degrees of freedom ratio (χ^2/DF, with χ^2 ~ WSSR) known to be a stand-alone index characterizing the quality of a model fit is provided for each cell line. […] The latter is the case for each cell line (Table 3). […] An explanation can be found in the fact that triplicate standard deviations were used as rough estimates.

[3] = target: T2, aryl hydrocarbon receptor (AhR) (Mus musculus, UniProt P30561); assay: CALUX luciferase reporter bioassay, H1L7.5c3 mouse hepatoma cells (20 DREs); format: cell-based; details: H1L7.5c3 mouse (20 DREs)
T2 sequence (P30561 10-848): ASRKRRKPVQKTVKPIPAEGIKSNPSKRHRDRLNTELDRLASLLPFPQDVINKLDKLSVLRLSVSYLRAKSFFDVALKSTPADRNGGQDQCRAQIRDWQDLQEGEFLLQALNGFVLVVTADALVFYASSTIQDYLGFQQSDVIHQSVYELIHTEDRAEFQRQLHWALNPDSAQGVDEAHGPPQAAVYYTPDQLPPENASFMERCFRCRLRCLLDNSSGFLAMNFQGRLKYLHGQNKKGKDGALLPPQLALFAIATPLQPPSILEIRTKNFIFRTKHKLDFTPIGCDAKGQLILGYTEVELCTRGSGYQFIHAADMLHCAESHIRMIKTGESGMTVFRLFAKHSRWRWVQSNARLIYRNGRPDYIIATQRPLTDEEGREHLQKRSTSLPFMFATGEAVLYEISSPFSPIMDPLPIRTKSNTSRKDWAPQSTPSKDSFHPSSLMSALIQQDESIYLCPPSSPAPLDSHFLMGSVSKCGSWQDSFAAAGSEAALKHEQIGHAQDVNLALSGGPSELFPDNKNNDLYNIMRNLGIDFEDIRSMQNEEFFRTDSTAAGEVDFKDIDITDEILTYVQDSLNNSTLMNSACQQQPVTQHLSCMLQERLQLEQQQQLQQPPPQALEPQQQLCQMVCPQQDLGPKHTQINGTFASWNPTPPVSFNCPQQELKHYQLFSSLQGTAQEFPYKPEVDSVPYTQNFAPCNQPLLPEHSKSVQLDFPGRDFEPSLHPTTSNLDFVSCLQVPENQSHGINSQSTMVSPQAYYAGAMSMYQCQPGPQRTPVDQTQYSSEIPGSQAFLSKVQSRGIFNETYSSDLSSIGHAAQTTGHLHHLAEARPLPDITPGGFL
T2 sequence (P53762 2-791 partner): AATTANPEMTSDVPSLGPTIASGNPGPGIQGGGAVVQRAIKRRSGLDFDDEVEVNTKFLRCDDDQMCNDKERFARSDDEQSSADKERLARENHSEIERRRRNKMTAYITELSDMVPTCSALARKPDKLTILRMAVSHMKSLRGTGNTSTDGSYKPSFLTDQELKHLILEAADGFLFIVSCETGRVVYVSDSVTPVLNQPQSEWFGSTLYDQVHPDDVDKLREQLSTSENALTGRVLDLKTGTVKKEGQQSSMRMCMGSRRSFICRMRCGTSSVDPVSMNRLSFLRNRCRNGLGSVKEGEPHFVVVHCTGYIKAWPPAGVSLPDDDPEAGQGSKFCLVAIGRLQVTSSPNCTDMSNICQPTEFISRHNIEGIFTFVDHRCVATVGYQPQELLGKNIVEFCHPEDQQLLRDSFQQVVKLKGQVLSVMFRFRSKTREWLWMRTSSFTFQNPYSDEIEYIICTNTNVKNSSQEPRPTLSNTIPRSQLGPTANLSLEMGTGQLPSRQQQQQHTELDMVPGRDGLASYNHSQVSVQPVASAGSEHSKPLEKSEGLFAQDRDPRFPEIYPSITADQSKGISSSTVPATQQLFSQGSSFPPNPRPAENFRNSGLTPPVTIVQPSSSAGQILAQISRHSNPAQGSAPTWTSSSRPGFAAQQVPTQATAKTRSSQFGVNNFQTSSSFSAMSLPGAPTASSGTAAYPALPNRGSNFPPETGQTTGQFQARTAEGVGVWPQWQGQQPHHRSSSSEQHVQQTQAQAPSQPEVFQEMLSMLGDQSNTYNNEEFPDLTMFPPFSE
Source text: as §1, §2, §3

[4] = target: T1, aryl hydrocarbon receptor (AhR); assay: DR-CALUX luciferase reporter bioassay, recombinant rat hepatoma (H4IIe)-based cells (4 DREs); format: cell-based; details: DR-CALUX rat (4 DREs)
Source text: as §2, §3

[5] = design: method as in PMID 15083163; details: adult humans; cited from earlier work
[6] = target: T2, aryl hydrocarbon receptor (AhR); assay: CALUX luciferase reporter bioassay, H1L6.1c2 mouse hepatoma cells (4 DREs); format: cell-based; details: H1L6.1c2 mouse (4 DREs)
Source text: as §2, §3

[7] = target: T1, aryl hydrocarbon receptor (AhR); assay: CALUX luciferase reporter bioassay, H4L7.5c2 rat hepatoma cells (20 DREs); format: cell-based
Source text: as §1
Exposure of H4L7.5c2 rat cells to dioxins, dioxin-like compounds, and other AhR agonists results in induction of luciferase reporter gene expression in a time-, concentration-, AhR-, and chemical-specific manner. The AhR signal transduction pathway in the CALUX bioassay and the molecular mechanism of activation of gene expression by 2,3,7,8-TCDD and related AhR agonists have been described in detail elsewhere. The level of luciferase expression in CALUX cell lines is directly related to the overall concentration of added AhR activators.
H4L7.5c2 rat cells of defined sub-confluent density (60–70%) were harvested with trypsin and homogeneously suspended in cell culture medium (α-MEM) containing 10% (v/v) FBS. Cells were counted in a haemocytometer, then seeded in 96-well white clear bottom culture plates (Corning, New York, USA) at approximately 25,000 cells/well. After 1 h of pre-incubation at ambient conditions in a biosafety cabinet, the cells were grown for 20–24 h at 37 °C in the presence of 5% CO2.
Individual concentrations of a 2,3,7,8-TCDD-standard dilution series (generating assay concentrations of 0.0, 0.1, 0.3, 1.0, 3.0, 10, 30, 300, and 3000 pmol/L) and the sample extracts (both in DMSO) were first added to incubation medium and mixed, and the mixtures subsequently added in triplicate to 96-well plates containing H4L7.5c2 cells. The ability of the bioassay target compounds to adhere to the walls and bottom of the wells can lead to cells in individual wells of a triplicate being dosed with slightly different amounts of AhR-active compounds, leading to increased triplicate RSD values. Well-to-well variability of the cell response also further depends on edge effects commonly observed across 96-well microplates. For a given cell system, inhomogeneous dosing of triplicates and edge effects are some of the main drivers for the assay working range, within which triplicate RSD values are subject to defined limitations (RSD < 15%). Especially, its bottom end should be as low as possible for the present application. Each batch of plates was therefore pre-tested for satisfactorily low and reproducible edge effects. The latter was further reduced by a 1 h pre-incubation under ambient conditions in the safety cabinet immediately after seeding the cells, resulting in an even distribution of the cells in each well. The plates were then placed in an incubator on a 1.5 mm-thin copper sheet on top of the incubator shelf. Copper not only has bactericidal properties, but being a fast heat conductor, it also helps to avoid the formation of patterns in the measured cell response (another type of "edge effects"), caused by temperature gradients near heat-radiating walls or by occasional opening of the incubator door. For preparing the dose media, we applied a validated, fast, and reproducible pipetting procedure followed by thorough re-mixing immediately before dosing the cells only into the inner 60 wells of 96-well plates. Cell culture medium was added to the cells in the 36 outer wells to maintain a balanced atmosphere above all wells allowing homogeneous evaporation rates across the plate during incubation. […]

[8] = H4L7.5c2 rat (20 DREs), 5-PL fit by WSSR regression

Which “Relative potency (REP) or response of the cell bioassay compared to the response to 2,3,7,8-TCDD” value [1] does the source give for `Clc1ccc(-c2cc(Cl)c(Cl)c(Cl)c2)cc1Cl` [PCB 126] here?
Its value is “approximately 40%”.

For `Clc1cc2c(cc1Cl)Oc1cc(Cl)c(Cl)cc1O2` [2,3,7,8-TCDD, 2,3,7,8-tetrachlorodibenzo-p-dioxin], which “Fold induction at 0.3 pmol/L” value ([2]; 0.3 pmol/L) is on record?
Its value is 1.33.

And the “Fold induction at 1.0 pmol/L” value ([2]; 1.0 pmol/L)?
The value was 2.44.

What about the “Asymmetry factor (e)” value ([2]; 5-PL fit) of the same compound?
Its value is 1.81.

And the EC50 ([2]; 5-PL fit by WSSR regression)?
The EC50 was 0.00552 nM.

What about the EC70 ([2]; 5-PL fit by WSSR regression) of the same compound?
The EC70 was 0.0198 nM.

And the “Inflection point (c)” value ([2]; 5-PL fit by WSSR regression)?
Its value is 3.67 pmol/L.

And the Maximum fold induction ([2]; 5-PL fit by WSSR regression)?
Its Maximum fold induction is 20.6.

And the “Slope (b)” value ([2]; Hill coefficient of 5-PL fit)?
Its value is 0.90.

And the “Fold induction at 0.3 pmol/L” value ([3]; 0.3 pmol/L)?
Its value is 1.10.

What about the “Fold induction at 1.0 pmol/L” value ([3]; 1.0 pmol/L) of the same compound?
Its value is 1.62.

What about the “Asymmetry factor (e)” value ([3]; 5-PL fit) of the same compound?
Its value is 1.15.

What about the EC70 ([3]; 5-PL fit by WSSR regression) of the same compound?
Its EC70 is 0.00921 nM.

And the “Inflection point (c)” value ([3]; 5-PL fit by WSSR regression)?
Its value is 4.63 pmol/L.

And the Maximum fold induction ([3]; 5-PL fit by WSSR regression)?
Its Maximum fold induction is 10.5.

What about the “Slope (b)” value ([3]; Hill coefficient of 5-PL fit) of the same compound?
Its value is 1.48.

What about the EC50 ([3]; H1L7.5c3 mouse hepatoma CALUX cells (20 DREs), 5-PL fit by WSSR regression) of the same compound?
Its EC50 is 0.00528 nM.

And the “Fold induction at 0.3 pmol/L” value ([4]; 0.3 pmol/L)?
The value was 1.16.

And the “Fold induction at 1.0 pmol/L” value ([4]; 1.0 pmol/L)?
The value was 1.53.

What about the “Asymmetry factor (e)” value ([4]; 5-PL fit) of the same compound?
Its value is 0.63.

And the EC50 ([4]; 5-PL fit by WSSR regression)?
The EC50 was 0.00789 nM.

And the EC70 ([4]; 5-PL fit by WSSR regression)?
Its EC70 is 0.014 nM.

What about the “Inflection point (c)” value ([4]; 5-PL fit by WSSR regression) of the same compound?
The value was 12.0 pmol/L.

And the Maximum fold induction ([4]; 5-PL fit by WSSR regression)?
The Maximum fold induction was 8.75.

What about the “Slope (b)” value ([4]; Hill coefficient of 5-PL fit) of the same compound?
Its value is 1.70.

And the half-life [5]?
Its half-life is 3 to 10 years.

What about the “Fold induction at 0.3 pmol/L” value ([6]; 0.3 pmol/L) of the same compound?
The value was 1.12.

And the “Fold induction at 1.0 pmol/L” value ([6]; 1.0 pmol/L)?
Its value is 1.56.

What about the “Asymmetry factor (e)” value ([6]; 5-PL fit) of the same compound?
The value was 1.42.

What about the EC70 ([6]; 5-PL fit by WSSR regression) of the same compound?
The EC70 was 0.0505 nM.

And the “Inflection point (c)” value ([6]; 5-PL fit by WSSR regression)?
The value was 15.0 pmol/L.

And the Maximum fold induction ([6]; 5-PL fit by WSSR regression)?
Its Maximum fold induction is 31.2.

And the “Slope (b)” value ([6]; Hill coefficient of 5-PL fit)?
The value was 1.03.

And the EC50 ([6]; H1L6.1c2 mouse hepatoma CALUX cells (4 DREs), 5-PL fit by WSSR regression)?
Its EC50 is 0.0235 nM.

What about the “Fold induction at 0.3 pmol/L” value ([7]; H4L7.5c2 rat (20 DREs), 0.3 pmol/L) of the same compound?
Its value is 1.46.

And the “Fold induction at 1.0 pmol/L” value ([7]; H4L7.5c2 rat (20 DREs), 1.0 pmol/L)?
The value was 4.47.

And the “Asymmetry factor (e)” value ([7]; H4L7.5c2 rat (20 DREs), 5-PL fit)?
The value was 1.51.

And the EC50 [7, 8]?
Its EC50 is 0.0114 nM.

What about the EC70 [7, 8] of the same compound?
Its EC70 is 0.0223 nM.

And the “Inflection point (c)” value [7, 8]?
Its value is 7.22 pmol/L.

And the Maximum fold induction [7, 8]?
Its Maximum fold induction is 136.

What about the “Slope (b)” value ([7]; H4L7.5c2 rat (20 DREs), Hill coefficient of 5-PL fit) of the same compound?
The value was 1.17.

What about the Maximum response ([7]; H4L7.5c2 rat hepatoma cells, corrected for the assay background response, 5-PL fit) of the same compound?
The Maximum response was 4730 RLUs.
